Counter-ions that a name gives are not always drawn.
What was measured:
porcine parvovirus; PPV = assay: Porcine parvovirus clearance and sanitization across the benzamidine-SEPHAROSE column (TCID50 titration on MPK cells); type: cell-based
[1] = system: bovine viral diarrhea virus (BVDV); assay: Column sanitization after viral clearance run, BVDV; type: cell-based; details: column treated with 7.2 M guanidine hydrochloride, pH 3.0, after a viral clearance run
Procedure: Solutions tested included a variety of alcohols, detergents, and chaotropic agents including guanidine hydrochloride (Table 2). […] A series of experiments were performed to identify conditions under which 8 M guanidine hydrochloride would stay in solution. […] Additionally, when mixed with virus (1 part virus:9 parts acidic guanidine hydrochloride; final guanidine hydrochloride concentration=7.2 M) inactivation to the limit of detection occurred within 30 minutes at 4° C. Similar experiments were carried out treating the benzamidine-SEPHAROSE column with 7.2 M guanidine hydrochloride, pH 3.0, following a viral clearance evaluation run.

PrP^Sc = details: pH 3
porcine parvovirus (PPV) = assay: Inactivation of PPV in solution by test solutions (TCID50 titration); type: cell-based

**Q.** Which “inactivation of chromatographic column-associated virus (benzamidine-SEPHAROSE resin)” value (porcine parvovirus; PPV; 7.2 M guanidine hydrochloride, pH 3.0) does the source give for `N=C(N)N` [guanidine hydrochloride] here?
**A.** can be inactivated

**Q.** What about the “virus inactivation on the benzamidine-SEPHAROSE column” value (porcine parvovirus; PPV; PPV, column treated with 7.2 M guanidine hydrochloride, pH 3.0, after a viral clearance run) of the same molecule?
**A.** inactivation to the limit of assay detection

**Q.** What about the “virus inactivation on the benzamidine-SEPHAROSE column” value [1] of the same molecule?
**A.** inactivation to the limit of assay detection

**Q.** What about the “decrease in PrP^RES immunoreactivity, as compared to the non-treated control” value (PrP^Sc) of the same molecule?
**A.** ≥ 2.5 log

**Q.** What about the “time to inactivation to the limit of detection” value (porcine parvovirus (PPV); 1 part virus:9 parts acidic guanidine hydrochloride, final concentration 7.2 M, 4° C.) of the same molecule?
**A.** ≤ 30 min

**Q.** What about the “inactivation of virus in solution” value (porcine parvovirus (PPV); 4 M guanidine hydrochloride, pH 3.0) of the same molecule?
**A.** effective viral inactivation

**Q.** And the “inactivation of virus in solution” value (porcine parvovirus (PPV); 6.5 M guanidine hydrochloride, pH 4.0, 4° C.)?
**A.** inactivation of virus

**Q.** What about the “killing of virus (PPV)” value (porcine parvovirus (PPV); 8 M guanidine hydrochloride, room temperature, initial screen) of the same molecule?
**A.** effective at killing virus to the detection limit of the assay

**Q.** What about the precipitation (8 M guanidine acidified to pH 4.0 or 3.0, 4° C.) of the same molecule?
**A.** did not precipitate

**Q.** And the “precipitation at the lower temperature” value (8 M guanidine, not acidified, 4° C.)?
**A.** precipitation occurred
